For assay [1], the system named is CCl4 induced hepatic injury. Briefly: Hepatoprotective activity (in vivo) against CCl4 induced hepatic injury in rats. The source says: Treatment of experimental animals with the 033 and 033(1) against CCU induced liver damage reduced the elevated levels of serum GPT, GOT, ALP, bilirubin, TG and hepatic lipid peroxidation and increased the GSH level.
For assay [2], the system named is GalN induced hepatic injury. The experiment in a line: Hepatoprotective activity (in vivo) against galactosamine (GalN) induced hepatic injury in rats. The source says: The hepatoprotective activity observed with 033 and 033(1) was 59.58 & 44.97, 56.62 & 44.05, 54.28 & 47.66, 57.71 & 66.66, 57.89 & 49.33 percent in serum GPT, GOT, Bilirubin, ALP, and TG respectively and 67.51 & 48.34, 66.56 & 55.13 percent in hepatic lipid peroxidation (LP) and GSH respectively. The same with silymarin was 57.38, 55.40, 60.00, 53.54,46.17, 69.59, 67.18 percent respectively (Table-2). [table]

[3] abbreviates: liver homogenate, rats, fed p.o. at 48 h, 24 h, 2 h before and 6 h after CCl4 (1 ml/kg, p.o.), 033 400 mg/kg, 033 (1) and silymarin 50 mg/kg, mean of six animals.
Where [4] appears, read: rats, fed p.o. at 48 h, 24 h, 2 h before and 6 h after CCl4 (1 ml/kg, p.o.), 033 400 mg/kg, 033 (1) and silymarin 50 mg/kg, mean of six animals.
Setting [5] is: rats, fed p.o. at 48 h, 24 h, 2 h before and 6 h after CCl4 (1 ml/kg, p.o.), 033 400 mg/kg, 033 (1) and silymarin 50 mg/kg, mean of six animals, listed as 033(1).
[6] abbreviates: liver, rats, fed p.o. at 48 h, 24 h, 2 h before and 6 h after GalN (300 mg/kg, s.c.), 033 400 mg/kg, 033 (1) and silymarin 50 mg/kg, mean of six animals.
[7] abbreviates: rats, fed p.o. at 48 h, 24 h, 2 h before and 6 h after GalN (300 mg/kg, s.c.), 033 400 mg/kg, 033 (1) and silymarin 50 mg/kg, mean of six animals.

For the molecule `O=C(OCC1=C[C@@H](O)[C@@H]2C=CO[C@@H](O[C@@H]3O[C@H](CO)[C@@H](O)[C@H](O)[C@H]3O)[C@H]12)c1ccc(O)cc1` [033 (1), 10-O-p-hydroxybenzoylaucubin], in assay [1] (experimentally induced hepatic damage with CCl4 in rats), the “hepatoprotective activity (in words)” value is “marked hepatoprotective activity”. Further, in assay [1] (setting [3]), the “Hepatoprotective activity, hepatic Glutathione (GSH)” value is listed as 38.12% and the “Hepatoprotective activity, hepatic Lipid peroxidation (LP)” value was determined as 41.48%. In assay [1] (setting [4]), the Hepatoprotective activity, serum ALP (table head: Al.F) came to 60.2%; the “Hepatoprotective activity, serum Bilirubin (table head: Bihrubin (mg %))” value was found to be 71.79%; the “Hepatoprotective activity, serum GOT (Units)” value is 57.43%; the “Hepatoprotective activity, serum GPT (table head: OPT (Units))” value is listed as 59.52%. For the same molecule, in assay [1] (setting [4]), the “Hepatoprotective activity, serum Triglycerides (TG)” value turned out to be 38.53%. In assay [1] (setting [5]), the “Hepatoprotective activity, serum ALP (table head: Al.F)” value is recorded as 60.17% and the “Hepatoprotective activity, serum GOT (Units)” value is given as 57.42%. In addition, the “hepatoprotective activity (in words)” value in assay [2] (experimentally induced hepatic damage with galactosamine (GalN) in rats) was “marked hepatoprotective activity”. For the same molecule, in assay [2] (setting [6]), the “Hepatoprotective activity, hepatic Glutathione (GSH)” value amounted to 55.13% and the “Hepatoprotective activity, hepatic Lipid peroxidation (LP)” value is 48.34%. In assay [2] (setting [7]), the “Hepatoprotective activity, serum ALP” value turned out to be 66.66%; the “Hepatoprotective activity, serum Bilirubin (mg %)” value amounted to 47.66%; the “Hepatoprotective activity, serum GOT (Units)” value was 44.05%; the “Hepatoprotective activity, serum GPT (Units)” value was 44.97%. Also, the “Hepatoprotective activity, serum Triglycerides (mg %)” value in assay [2] (setting [7]) was found to be 49.33%.

(Values after patent publication US20040029816A1, “Hepatoprotective activity of 10-O-P-hydroxybenzoyiaucubin” (priority 2002, published 2004).)
